Experiment [1] has as its system PC-3 prostate cancer cells. The experiment is described as follows: WST1 cell viability assay. Type of experiment: cell-based, human. The following applies: Homo sapiens, PC-3 cells, just before lysis; for inhibition at 10 µM: PC-3, 10 μM, read-out: % inh WST-1 (10 μM); for inhibition at 100 µM: PC-3, 100 μM, read-out: % inh WST-1 (100 μM). On the procedure:
WST1 Cell Viability Assay: One hour prior to cell lysis for the dual luciferase assay, 10 μl per well of WST1 reagent (Roche) was added to the 96-well plates. Plates were incubated for 1 hour at 37° C. and 5% CO2. Cell viability was measured by WST1 absorbance at 450 nm with a Victor2 (Perkin-Elmer) plate reader.
(In general: Tetrazolium assays rely on reduction of a dye to a coloured formazan, in cell work by metabolically active cells.)

The test system of the next experiment is Rho/MKL1 pathway. The experiment is described as follows: SRE.L-firefly luciferase reporter (dual luciferase assay), Gα12QL-transfected PC-3 cells. It counts as cell-based, human. The following applies: Homo sapiens; for inhibition at 100 µM / inhibition at 10 µM: DMSO alone = 0%; for inhibition at 100 µM: read-out: % inh SRE.L (100 μM); for inhibition at 10 µM: read-out: % inh SRE.L (10 μM). How it is done: Dual Luciferase Assay: Seed PC-3 prostate cancer cells (40,000 cells/well) were grown in 96-well plates in 10% FBS containing DMEM medium. Cells were transiently transfected with the Gα12QL activator of the Rho/MKL1 pathway, along with the SRE.L-firefly luciferase reporter construct for 6 hours. Additionally, cells were co-transfected with the TK-Renilla luciferase reporter as an indicator of non-specific compound effects. Various concentrations of selected compounds were added to the 96-well plates. Plates were incubated for 19 hours at 37° C. and 5% CO2 in 0.5% FBS containing DMEM medium. Cells were lysed with 1X Passive Lysis Buffer (Promega). Plates were incubated for 30 minutes at room temperature. Luminescence counts were read with a Victor2 (Perkin-Elmer) plate reader.
A general note: In a reporter assay the amount or activity of a reporter protein is the signal.

With `O=C(Nc1ccc(Cl)cc1)C1CCCN(C(=O)c2cc(C(F)(F)F)cc(C(F)(F)F)c2)C1` (stereo not drawn) [Compound 4, 1-(3,5-bis(trifluoromethyl)benzoyl)-N-(4-chlorophenyl)piperidine-3-carboxamide], in experiment [1], the inhibition at 10 µM was found to be 0% and the inhibition at 100 µM worked out at 14%.

On to `COc1ccc(NC(=O)CONC(=O)c2cc(C(F)(F)F)cc(C(F)(F)F)c2)cc1Cl` [Compound 9, N-(2-(3-chloro-4-methoxyphenylamino)-2-oxoethoxy)-3,5-bis(trifluoromethyl)benzamide], for which, in the experiment with Rho/MKL1 pathway (19 h), the half-maximal inhibitory concentration (IC50) – broadly, the concentration that gives 50% inhibition – amounted to 11.4 µM.

Consider `CN(C(=O)CONC(=O)c1cc(C(F)(F)F)cc(C(F)(F)F)c1)c1ccc(Cl)cc1` [Compound 11, N-(2-((4-chlorophenyl)(methyl)amino)-2-oxoethoxy)-3,5-bis(trifluoromethyl)benzamide], for which, in the experiment on Rho/MKL1 pathway (19 h), the half-inhibitory concentration (IC50) turned out to be 111 µM.

`COc1ccc(NC(=O)C2CCCN(C(=O)c3cc(C(F)(F)F)cc(C(F)(F)F)c3)C2)cc1Cl` (stereo not drawn) [Compound 12, 1-(3,5-bis(trifluoromethyl)benzoyl)-N-(3-chloro-4-methoxyphenyl)piperidine-3-carboxamide]: in the experiment with Rho/MKL1 pathway (19 h), inhibition was half-maximal at 6 µM (IC50).

In turn, `COc1ccc(NC(=O)CCNC(=O)c2cc(C(F)(F)F)cc(C(F)(F)F)c2)cc1Cl` [Compound 13, N-(3-(3-chloro-4-methoxyphenylamino)-3-oxopropyl)-3,5-bis(trifluoromethyl)benzamide] registered a concentration for half-maximal inhibition (IC50) in the experiment with Rho/MKL1 pathway (19 h) of 142 µM.

In the experiment on Rho/MKL1 pathway (19 hrs), `O=C(c1cc(C(F)(F)F)cc(C(F)(F)F)c1)N1CCC(Nc2ccc(Cl)cc2)CC1` [Compound 17, (3,5-bis(trifluoromethyl)phenyl)(4-(4-chlorophenylamino)piperidin-1-yl)methanone] returned a half-inhibitory concentration (IC50) of 10.8 µM.

`COc1ccc(NCCCNC(=O)c2cc(C(F)(F)F)cc(C(F)(F)F)c2)cc1Cl` [Compound 20, N-(3-(3-chloro-4-methoxyphenylamino)propyl)-3,5-bis(trifluoromethyl)benzamide] registered an IC50 in the experiment with Rho/MKL1 pathway (19 h) of 9.9 µM.

On to `COc1cc(NCCCNC(=O)c2cc(C(F)(F)F)cc(C(F)(F)F)c2)ccc1Cl` [Compound 21, N-(3-(4-chloro-3-methoxyphenylamino)propyl)-3,5-bis(trifluoromethyl)benzamide], for which, in the experiment with Rho/MKL1 pathway (19 h), the IC50 was 7.3 µM.

Consider `O=C(c1cc(C(F)(F)F)cc(C(F)(F)F)c1)N1CCC(=O)N(c2ccc(Cl)cc2)CC1` [Compound 24, 1-(3,5-bis(trifluoromethyl)benzoyl)-4-(4-chlorophenyl)-1,4-diazepan-5-one], for which, in the experiment with Rho/MKL1 pathway (19 h), the IC50 was more than 100 µM and the inhibition at 100 µM came out at 30%.

For the compound `O=C(CCNC(=O)c1cc(C(F)(F)F)cc(C(F)(F)F)c1)NCc1ccc(Cl)cc1` [Compound 25, N-(3-(4-chlorobenzylamino)-3-oxopropyl)-3,5-bis(trifluoromethyl)benzamide], in the experiment on Rho/MKL1 pathway (19 h), half-maximal inhibition (IC50) was put at 5 µM.

As for `O=C(NC1CC(=O)N(c2ccc(Cl)cc2)C1)OCc1ccccc1` (stereo not drawn) [Compound 31, Benzyl 1-(4-chlorophenyl)-5-oxopyrrolidin-3-ylcarbamate], half-maximal inhibition in the experiment on Rho/MKL1 pathway (19 h) (IC50) was put at 54.7 µM.

Regarding `O=C(N[C@@H]1CCC[C@@H]1C(=O)Nc1ccc(Cl)cc1)c1cc(C(F)(F)F)cc(C(F)(F)F)c1` [Compound 39], the IC50 in the experiment with Rho/MKL1 pathway (19 h) was more than 100 µM.

In turn, `O=C(CCc1cn(-c2cc(C(F)(F)F)cc(C(F)(F)F)c2)nn1)Nc1ccc(Cl)cc1` [Compound 40] gave a half-maximal inhibitory concentration (IC50) with Rho/MKL1 pathway (19 h) of more than 100 µM.

`O=C(NCCc1cn(-c2ccc(Cl)cc2)nn1)c1cc(C(F)(F)F)cc(C(F)(F)F)c1` [Compound 41] displayed an IC50 in the experiment on Rho/MKL1 pathway (19 h) of more than 100 µM.

Consider `O=C(NCCCNc1ccc(Cl)nc1)c1cc(C(F)(F)F)cc(C(F)(F)F)c1` [Compound 42, N-(3-((6-chloropyridin-3-yl)amino)propyl)-3,5-bis(trifluoromethyl)benzamide], for which, in the experiment with Rho/MKL1 pathway (19 h), 24.4 µM corresponded to half-maximal inhibition (IC50), the inhibition at 10 µM was -1.7% and the inhibition at 100 µM turned out to be 95.1%. Moreover, in experiment [1], the inhibition at 10 µM is -7.4% and the inhibition at 100 µM was determined as 64.7%.

Take `O=C(NCCCNc1ccc(Cl)cc1)c1cc(F)cc(F)c1` [Compound 43, N-(3-((4-chlorophenyl)amino)propyl)-3,5-difluorobenzamide]: in the experiment on Rho/MKL1 pathway (19 h), half-maximal inhibition (IC50) required 34.7 µM, the inhibition at 10 µM was -6.5% and the inhibition at 100 µM came out at 95.7%. In experiment [1], the inhibition at 10 µM is -9.9% and the inhibition at 100 µM amounted to 73%.

`O=C(NCCCNc1ccc(Cl)cn1)c1cc(C(F)(F)F)cc(C(F)(F)F)c1` [Compound 44, N-(3-((5-chloropyridin-2-yl)amino)propyl)-3,5-bis(trifluoromethyl)benzamide]: in the experiment with Rho/MKL1 pathway (19 h), the 50% inhibitory concentration (IC50) is 654 µM, the inhibition at 10 µM turned out to be 20.5% and the inhibition at 100 µM was 82.9%. In experiment [1], the inhibition at 10 µM is 17.6% and the inhibition at 100 µM is 39.4%.

As to `O=C(NC1CC(=O)N(c2ccc(Cl)cc2)C1)OCc1cc(C(F)(F)F)cc(C(F)(F)F)c1` (stereo not drawn) [Compound 45, 3,5-bis(trifluoromethyl)benzyl (1-(4-chlorophenyl)-5-oxopyrrolidin-3-yl)carbamate], in the experiment on Rho/MKL1 pathway (19 h), half-maximal inhibition (IC50) was put at 13.4 µM, the inhibition at 10 µM was 9.4% and the inhibition at 100 µM was 68%. Moreover, in experiment [1], the inhibition at 10 µM was found to be 0.6% and the inhibition at 100 µM amounted to 8.4%.

With `O=C(NC1CC(=O)N(c2ccc(Cl)cc2)C1)OCc1cc(F)cc(F)c1` (stereo not drawn) [Compound 46, 3,5-difluorobenzyl (1-(4-chlorophenyl)-5-oxopyrrolidin-3-yl)carbamate], in the experiment on Rho/MKL1 pathway (19 h), the inhibition at 10 µM was determined as 13.7% and the inhibition at 100 µM came out at 76.1%. Further, in experiment [1], the inhibition at 10 µM was 0.1% and the inhibition at 100 µM was 67.5%.

For the compound `O=C(NC1CC(=O)N(c2ccc(Cl)cc2)C1)c1cc(C(F)(F)F)cc(C(F)(F)F)c1` (stereo not drawn) [Compound 47, N-(1-(4-chlorophenyl)-5-oxopyrrolidin-3-yl)-3,5-bis(trifluoromethyl)benzamide], in the experiment on Rho/MKL1 pathway (19 h), 18 µM corresponded to half-maximal inhibition (IC50), the inhibition at 10 µM was 18% and the inhibition at 100 µM is 57.8%. For the same compound, in experiment [1], the inhibition at 10 µM was -0.8% and the inhibition at 100 µM is 14.3%.

On to `O=C1CC(NC(=O)c2cc(C(F)(F)F)cc(C(F)(F)F)c2)c2cc(Cl)ccc2N1` (stereo not drawn) [Compound 48, N-(6-chloro-2-oxo-1,2,3,4-tetrahydroquinolin-4-yl)-3,5-bis(trifluoromethyl)benzamide], for which, in the experiment with Rho/MKL1 pathway (19 h), the inhibition at 10 µM turned out to be 4.9% and the inhibition at 100 µM came out at 2.5%. In addition, in experiment [1], the inhibition at 10 µM turned out to be 4.3% and the inhibition at 100 µM was -2.7%.

As to `O=C(NC1CC(=O)N(c2ccc(Cl)cc2)C1)c1cc(F)cc(F)c1` (stereo not drawn) [Compound 49, N-(1-(4-chlorophenyl)-5-oxopyrrolidin-3-yl)-3,5-difluorobenzamide], in the experiment on Rho/MKL1 pathway (19 h), the inhibition at 10 µM was -8.4% and the inhibition at 100 µM amounted to 13.4%. Moreover, in experiment [1], the inhibition at 10 µM was -6.1% and the inhibition at 100 µM was found to be 0.6%.

As for `FC(F)(F)c1cc(CN2CCCC(CNc3ccc(Cl)cc3)C2)cc(C(F)(F)F)c1` (stereo not drawn) [Compound 50, N-((1-(3,5-bis(trifluoromethyl)benzyl)piperidin-3-yl)methyl)-4-chloroaniline], the inhibition at 10 µM with Rho/MKL1 pathway (19 h) was 0.9%; in experiment [1] it was 20.9%. Besides, the inhibition at 100 µM with Rho/MKL1 pathway (19 h) is 70.2%; in experiment [1], 32.2%.

Values taken from US20120252792A1, “METHODS AND COMPOSITIONS FOR MODULATING RHO-MEDIATED GENE TRANSCRIPTION” (THE REGENTS OF THE UNIVERSITY OF MICHIGAN, priority 2009, published 2012).
